Test results reported in patent publication EP1161438B1, “6-O-SUBSTITUTED MACROLIDES HAVING ANTIBACTERIAL ACTIVITY” (ABBOTT LABORATORIES, priority 1999, dated 2000).
≈ marks a conversion by molar mass, not a printed value.

Experiments:
Assay in all cases: Agar dilution antibacterial MIC assay
Type in all cases: cell-based
[1] = tested on: Nocardia Asteroides ATCC9970; conditions: organism code VV, BHI agar, 35-37 °C, 20 to 24 hours, unit assumed
Protocol: (§1) Representative compounds of the present invention were assayed in vitro for antibacterial activity as follows: Twelve petri dishes containing successive aqueous dilutions of the test compound mixed with 10 mL of sterilized Brain Heart Infusion (BHI) agar (Difco 0418-01-5) were prepared. Each plate was inoculated with 1:100 (or 1:10 for slow-growing strains, such as Micrococcus and Streptococcus) dilutions of up to 32 different microorganisms, using a Steers replicator block. […] In addition, a control plate, using BHI agar containing no test compound, was prepared and incubated at the beginning and end of each test.
(§2) An additional plate containing a compound having known susceptibility patterns for the organisms being tested and belonging to the same antibiotic class as the test compound was also prepared and incubated as a further control, as well as to provide test-to-test comparability.
(§3) After incubation, each plate was visually inspected. The minimum inhibitory concentration (MIC) was defined as the lowest concentration of drug yielding no growth, a slight haze, or sparsely isolated colonies on the inoculum spot as compared to the growth control.

[2] = tested on: Staphylococcus aureus NCTC10649M; conditions: organism code EE, BHI agar, 35-37 °C, 20 to 24 hours, unit assumed
Protocol: as §1, §2, §3

Escherichia coli DC-2 = conditions: organism code SS, BHI agar, 35-37 °C, 20 to 24 hours, unit assumed
Protocol: as §1, §2, §3

[3] = tested on: Streptococcus Pneumonia GYR 1171; conditions: organism code YY, BHI agar, 35-37 °C, 20 to 24 hours, unit assumed
Protocol: as §1, §2, §3

[4] = tested on: Haemophilis Influenzae DILL AMP R; conditions: organism code WW, BHI agar, 35-37 °C, 20 to 24 hours, unit assumed
Protocol: as §1, §2, §3

Escherichia coli SS = conditions: organism code RR, BHI agar, 35-37 °C, 20 to 24 hours, unit assumed
Protocol: as §1, §2, §3

[5] = tested on: Streptococcus pyogenes 930; conditions: organism code MM, BHI agar, 35-37 °C, 20 to 24 hours, unit assumed
Protocol: as §1, §2, §3

[6] = tested on: Staphylococcus epidermidis 3519; conditions: organism code HH, BHI agar, 35-37 °C, 20 to 24 hours, unit assumed
Protocol: as §1, §2, §3

[7] = tested on: Streptococcus pyogenes EES61; conditions: organism code LL, BHI agar, 35-37 °C, 20 to 24 hours, unit assumed
Protocol: as §1, §2, §3

[8] = tested on: Streptococcus Pneumonia ATCC6303; conditions: organism code XX, BHI agar, 35-37 °C, 20 to 24 hours, unit assumed
Protocol: as §1, §2, §3

[9] = tested on: Streptococcus bovis A-5169; conditions: organism code JJ, BHI agar, 35-37 °C, 20 to 24 hours, unit assumed
Protocol: as §1, §2, §3

[10] = tested on: Streptococcus Pneumonia 5649; conditions: organism code ZZA, BHI agar, 35-37 °C, 20 to 24 hours, unit assumed
Protocol: as §1, §2, §3

Candida albicans CCH 442 = conditions: organism code TT, BHI agar, 35-37 °C, 20 to 24 hours, unit assumed
Protocol: as §1, §2, §3

[11] = tested on: Streptococcus pyogenes PIU 2548; conditions: organism code NN, BHI agar, 35-37 °C, 20 to 24 hours, unit assumed
Protocol: as §1, §2, §3

[12] = tested on: Micrococcus luteus ATCC 9341; conditions: organism code OO, BHI agar, 35-37 °C, 20 to 24 hours, unit assumed
Protocol: as §1, §2, §3

[13] = tested on: Staphylococcus aureus ATCC 6538P; conditions: organism code AA, BHI agar, 35-37 °C, 20 to 24 hours, unit assumed
Protocol: as §1, §2, §3

[14] = tested on: Enterococcus faecium ATCC 8043; conditions: organism code II, BHI agar, 35-37 °C, 20 to 24 hours, unit assumed
Protocol: as §1, §2, §3

[15] = tested on: Staphylococcus aureus A-5278; conditions: organism code CC, BHI agar, 35-37 °C, 20 to 24 hours, unit assumed
Protocol: as §1, §2, §3

[16] = tested on: Micrococcus luteus ATCC 4698; conditions: organism code PP, BHI agar, 35-37 °C, 20 to 24 hours, unit assumed
Protocol: as §1, §2, §3

[17] = tested on: Mycobacterium smegmatis ATCC 114; conditions: organism code UU, BHI agar, 35-37 °C, 20 to 24 hours, unit assumed
Protocol: as §1, §2, §3

[18] = tested on: Staphylococcus aureus CMX 553; conditions: organism code FF, BHI agar, 35-37 °C, 20 to 24 hours, unit assumed
Protocol: as §1, §2, §3

[19] = tested on: Staphylococcus aureus 1775; conditions: organism code GG, BHI agar, 35-37 °C, 20 to 24 hours, unit assumed
Protocol: as §1, §2, §3

Escherichia coli JUHL = conditions: organism code QQ, BHI agar, 35-37 °C, 20 to 24 hours, unit assumed
Protocol: as §1, §2, §3

[20] = tested on: Staphylococcus aureus CMX 642A; conditions: organism code DD, BHI agar, 35-37 °C, 20 to 24 hours, unit assumed
Protocol: as §1, §2, §3

[21] = tested on: Staphylococcus aureus A5177; conditions: organism code BB, BHI agar, 35-37 °C, 20 to 24 hours, unit assumed
Protocol: as §1, §2, §3

[22] = tested on: Streptococcus agalactiae CMX 508; conditions: organism code KK, BHI agar, 35-37 °C, 20 to 24 hours, unit assumed
Protocol: as §1, §2, §3

[23] = tested on: Streptococcus Pneumonia 5979; conditions: organism code ZZ, BHI agar, 35-37 °C, 20 to 24 hours, unit assumed
Protocol: as §1, §2, §3

CC[C@H]1OC(=O)[C@H](C)[C@@H](O[C@H]2C[C@@](C)(OC)[C@@H](O)[C@H](C)O2)[C@H](C)[C@@H](O[C@@H]2O[C@H](C)C[C@H](N(C)C)[C@H]2O)[C@](C)(O)C[C@@H](C)C(=O)[C@H](C)[C@@H](O)[C@]1(C)O [Ery. A standard, Erythromycin A, reference compound]
MIC [1]: 0.1 µg/mL (≈ 0.136 µM) | MIC [2]: 0.39 µg/mL (≈ 0.531 µM) | MIC (Escherichia coli DC-2): > 100 µg/mL | MIC [3]: 0.06 µg/mL (≈ 0.0818 µM) | MIC [4]: 4 µg/mL (≈ 5.45 µM) | MIC (Escherichia coli SS): 0.78 µg/mL (≈ 1.06 µM) | MIC [5]: > 100 µg/mL | MIC [6]: 0.39 µg/mL (≈ 0.531 µM) | MIC [7]: 0.05 µg/mL (≈ 0.0681 µM) | MIC [8]: 0.06 µg/mL (≈ 0.0818 µM) | MIC [9]: 0.02 µg/mL (≈ 0.0273 µM) | MIC [10]: 16 µg/mL (≈ 21.8 µM) | MIC (Candida albicans CCH 442): > 100 µg/mL | MIC [11]: 6.2 µg/mL (≈ 8.45 µM) | MIC [12]: 0.05 µg/mL (≈ 0.0681 µM) | MIC [13]: 0.2 µg/mL (≈ 0.273 µM) | MIC [14]: 0.05 µg/mL (≈ 0.0681 µM) | MIC [15]: > 100 µg/mL | MIC [16]: 0.2 µg/mL (≈ 0.273 µM) | MIC [17]: 3.1 µg/mL (≈ 4.22 µM) | MIC [18]: 0.39 µg/mL (≈ 0.531 µM) | MIC [19]: > 100 µg/mL | MIC (Escherichia coli JUHL): > 100 µg/mL | MIC [20]: 0.39 µg/mL (≈ 0.531 µM) | MIC [21]: 3.1 µg/mL (≈ 4.22 µM) | MIC [22]: 0.05 µg/mL (≈ 0.0681 µM)

CC[C@H]1OC(=O)[C@H](C)C(=O)[C@H](C)[C@@H](O[C@@H]2O[C@H](C)C[C@H](N(C)C)[C@H]2O)[C@](C)(OCC#Cc2ccc(-c3ccccn3)s2)C[C@@H](C)C(=O)[C@H](C)[C@H]2NC(=O)O[C@@]21C [Example 1, Compound of Formula I: R^b is H, L is -C(O)-, T is -NH-, R is-(CH2)-C≡C-(5-(2-pyridyl)-2-thienyl)]
MIC [1]: 0.02 µg/mL | MIC [2]: 0.1 µg/mL | MIC (Escherichia coli DC-2): 6.2 µg/mL | MIC [3]: 0.03 µg/mL | MIC [4]: 2 µg/mL | MIC (Escherichia coli SS): 0.1 µg/mL | MIC [5]: 12.5 µg/mL | MIC [6]: 0.1 µg/mL | MIC [7]: 0.02 µg/mL | MIC [8]: 0.03 µg/mL | MIC [9]: 0.01 µg/mL | MIC [10]: 0.25 µg/mL | MIC [23]: 0.25 µg/mL | MIC (Candida albicans CCH 442): > 100 µg/mL | MIC [11]: 0.1 µg/mL | MIC [12]: 0.02 µg/mL | MIC [13]: 0.05 µg/mL | MIC [14]: 0.05 µg/mL | MIC [15]: > 100 µg/mL | MIC [16]: 0.1 µg/mL | MIC [17]: 0.2 µg/mL | MIC [18]: 0.05 µg/mL | MIC [19]: > 100 µg/mL | MIC (Escherichia coli JUHL): 12.5 µg/mL | MIC [20]: 0.05 µg/mL | MIC [21]: 0.05 µg/mL | MIC [22]: 0.02 µg/mL

CC[C@H]1OC(=O)[C@H](C)C(=O)[C@H](C)[C@@H](O[C@@H]2O[C@H](C)C[C@H](N(C)C)[C@H]2O)[C@](C)(OCC#Cc2ccc(-c3ccncc3)s2)C[C@@H](C)C(=O)[C@H](C)[C@H]2NC(=O)O[C@@]21C [Example 3, Compound of Formula I: R^b is H, L is -C(O)-, T is -NH-, R is-(CH2)-C≡C-(5-(4-pyridyl)-2-thienyl)]
MIC [1]: 0.01 µg/mL | MIC [3]: ≤ 0.004 µg/mL | MIC [4]: 2 µg/mL | MIC (Escherichia coli SS): 0.2 µg/mL | MIC [5]: 6.2 µg/mL | MIC [6]: > 100 µg/mL | MIC [7]: ≤ 0.05 µg/mL | MIC [8]: ≤ 0.004 µg/mL | MIC [9]: ≤ 0.05 µg/mL | MIC [10]: 0.125 µg/mL | MIC [23]: 2 µg/mL | MIC (Candida albicans CCH 442): > 100 µg/mL | MIC [11]: 0.1 µg/mL | MIC [13]: 0.05 µg/mL | MIC [15]: > 100 µg/mL | MIC [16]: 0.05 µg/mL | MIC [17]: 0.039 µg/mL | MIC (Escherichia coli JUHL): 100 µg/mL | MIC [20]: 0.1 µg/mL | MIC [21]: 0.05 µg/mL | MIC [22]: ≤ 0.05 µg/mL

CC[C@H]1OC(=O)[C@H](C)C(=O)[C@H](C)[C@@H](O[C@@H]2O[C@H](C)C[C@H](N(C)C)[C@H]2O)[C@](C)(OCC#Cc2ccc(-c3ccccn3)s2)C[C@@H](C)C(=O)[C@H](C)[C@H]2N(N)C(=O)O[C@]12C [Example 5, Compound of Formula I: R^b is H, L is -C(O)-, T is -N(W-R^d)-, W is -NH-, R^d is H, R is-(CH2)-C≡C-(5-(2-pyridyl)-2-thienyl)]
MIC [1]: 0.01 µg/mL | MIC [2]: 0.1 µg/mL | MIC [3]: 0.015 µg/mL | MIC [4]: 2 µg/mL | MIC (Escherichia coli SS): 0.2 µg/mL | MIC [5]: 50 µg/mL | MIC [6]: 0.1 µg/mL | MIC [7]: 0.01 µg/mL | MIC [8]: 0.015 µg/mL | MIC [9]: ≤ 0.005 µg/mL | MIC [10]: 0.25 µg/mL | MIC [23]: 2 µg/mL | MIC (Candida albicans CCH 442): > 100 µg/mL | MIC [11]: 0.39 µg/mL | MIC [13]: 0.05 µg/mL | MIC [15]: > 100 µg/mL | MIC [16]: 0.1 µg/mL | MIC [17]: 1.56 µg/mL | MIC [19]: > 100 µg/mL | MIC (Escherichia coli JUHL): 25 µg/mL | MIC [21]: 0.05 µg/mL | MIC [22]: ≤ 0.005 µg/mL

Compound of Formula II: R^b is H, R is -(CH2)-C≡C-(5-(2-pyridyl)-2-thienyl) [Example 4]
MIC [1]: 0.02 µg/mL | MIC [2]: 0.2 µg/mL | MIC [3]: ≤ 0.004 µg/mL | MIC [4]: 4 µg/mL | MIC (Escherichia coli SS): 0.39 µg/mL | MIC [5]: 6.2 µg/mL | MIC [6]: 0.1 µg/mL | MIC [7]: 0.02 µg/mL | MIC [8]: ≤ 0.004 µg/mL | MIC [9]: 0.01 µg/mL | MIC [10]: 0.25 µg/mL | MIC [23]: 4 µg/mL | MIC (Candida albicans CCH 442): > 100 µg/mL | MIC [11]: 0.2 µg/mL | MIC [13]: 0.05 µg/mL | MIC [15]: > 100 µg/mL | MIC [16]: 0.2 µg/mL | MIC [17]: 0.2 µg/mL | MIC [19]: > 100 µg/mL | MIC (Escherichia coli JUHL): 25 µg/mL | MIC [21]: 0.1 µg/mL | MIC [22]: 0.05 µg/mL
